Earlier results in patent US20250134887A1, “METHODS OF TREATING PROSTATE CANCER” (AstraZeneca AB, priority 2022, published 2025).

System: patients with mCRPC harboring BRCA1, BRCA2 and ATM mutations
Settings: disease had progressed on NHA; vs. enzalutamide or abiraterone; cited from earlier work

O=C(c1cc(Cc2n[nH]c(=O)c3ccccc23)ccc1F)N1CCN(C(=O)C2CC2)CC1 [olaparib, 4-[(3-{[4-(cyclopropane-carbonyl)piperazine-1-yl]carbonyl}-4-fluorophenyl)methyl]-2H-phthalazin-1-one]
imaging-based progression-free survival and overall survival: imaging-based progression-free survival and overall survival benefits
